Test results published in ChEMBL document CHEMBL1201862, “PubChem BioAssay data set” (2004).
Activity calls are given as the source filed them.

Legend:
[1] = molecular target: Melanocortin receptor 4 (Homo sapiens, UniProt P32245); type: functional, cell-based;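 further: Cell-based assay with luminescence read-out, confirmatory dose-response testing for agonist activity of biased ligands at MC4R; human U2OS cells with tagged receptor and beta-arrestin; potency of agonists that increase receptor coupling to beta-arrestin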
[2] = A Cell Based Secondary Assay To Explore Cytotoxicity of Compounds that Sensitize Mycobacterium Tuberculosis to Beta-Lactam Antibiotics.; type: functional
[3] = molecular target: T1, Sentrin-specific protease 1 (Homo sapiens, UniProt Q9P0U3); test: potency of human SENP1 inhibitors, dose response, biochemical, kinetic FRET (AID 651697); type: functional; conditions: read-out: IC50_Mean
T1 sequence (Q9P0U3 whole entry): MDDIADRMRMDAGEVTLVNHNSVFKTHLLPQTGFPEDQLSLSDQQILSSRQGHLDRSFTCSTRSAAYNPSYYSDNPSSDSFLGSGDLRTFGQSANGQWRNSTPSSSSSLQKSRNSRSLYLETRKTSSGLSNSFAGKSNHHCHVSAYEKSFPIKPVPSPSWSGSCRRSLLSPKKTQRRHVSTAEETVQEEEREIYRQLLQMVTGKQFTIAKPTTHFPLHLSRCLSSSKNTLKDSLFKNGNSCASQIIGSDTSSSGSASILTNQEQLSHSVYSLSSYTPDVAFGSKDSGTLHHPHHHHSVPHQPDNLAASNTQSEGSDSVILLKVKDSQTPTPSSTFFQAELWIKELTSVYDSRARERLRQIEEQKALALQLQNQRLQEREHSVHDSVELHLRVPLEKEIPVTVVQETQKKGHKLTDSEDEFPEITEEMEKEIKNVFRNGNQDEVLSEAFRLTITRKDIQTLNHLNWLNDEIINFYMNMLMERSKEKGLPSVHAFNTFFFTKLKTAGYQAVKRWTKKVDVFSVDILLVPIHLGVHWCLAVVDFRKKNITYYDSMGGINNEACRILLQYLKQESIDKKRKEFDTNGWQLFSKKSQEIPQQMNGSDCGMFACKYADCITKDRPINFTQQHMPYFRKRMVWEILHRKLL

[4] = molecular target: T1, Sentrin-specific protease 1; test: Dose response confirmation of small molecule inhibitors of the catalytic domain of the SUMO protease, SENP1 in a FRET assay.; type: functional; conditions: read-out: IC50_Mean
[5] = molecular target: Protein Wnt-3a (Mus musculus, UniProt P27467); test: Wnt3a-driven reporter signaling inhibition, dose response, selectivity assay for Gli-SUFU antagonist project, Wnt-LIGHT cells, luminescence (AID 651570); type: functional; conditions: read-out: IC50_Mean;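 further: Wnt-LIGHT reporter cells stimulated with conditioned medium from Wnt3a-producing cells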
[6] = molecular target: T2, Protein skinhead-1 (Caenorhabditis elegans, UniProt P34707); type: functional
T2 sequence (P34707 whole entry): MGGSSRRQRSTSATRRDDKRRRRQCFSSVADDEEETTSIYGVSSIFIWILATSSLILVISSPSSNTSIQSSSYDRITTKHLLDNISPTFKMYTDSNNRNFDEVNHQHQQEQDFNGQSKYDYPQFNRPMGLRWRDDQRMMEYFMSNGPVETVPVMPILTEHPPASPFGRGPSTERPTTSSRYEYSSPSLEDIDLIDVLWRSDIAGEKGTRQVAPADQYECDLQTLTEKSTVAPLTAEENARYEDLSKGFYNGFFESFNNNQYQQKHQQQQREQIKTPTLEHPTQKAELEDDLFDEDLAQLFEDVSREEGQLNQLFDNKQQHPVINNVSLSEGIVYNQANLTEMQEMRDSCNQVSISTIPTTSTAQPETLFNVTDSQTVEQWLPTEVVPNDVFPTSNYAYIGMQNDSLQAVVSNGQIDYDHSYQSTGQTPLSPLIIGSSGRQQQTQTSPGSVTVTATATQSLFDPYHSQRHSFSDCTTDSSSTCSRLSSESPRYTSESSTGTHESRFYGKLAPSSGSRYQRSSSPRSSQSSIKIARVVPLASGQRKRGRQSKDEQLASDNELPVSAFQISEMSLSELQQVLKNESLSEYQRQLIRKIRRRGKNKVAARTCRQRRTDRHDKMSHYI

[7] = molecular target: ATP-dependent molecular chaperone HSP82 (Candida albicans (strain WO-1) (Yeast), UniProt C4YTQ8); test: loss of DOC-induced GRE-beta-galactosidase reporter signal, dose response, Hsp90 inhibitor project, S. cerevisiae, luminescence (AID 2400); type: functional, cell-based;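 further: beta-galactosidase luminescence from glucocorticoid response element reporter as proxy for Hsp90 function; inhibitor potency where signal loss means Hsp90 inhibition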
[8] = molecular target: T3, Serine/threonine-protein phosphatase (Candida dubliniensis (strain CD36 / CBS 7987 / NCPF 3949 / NRRLY-17841) (Yeast), UniProt B9W6M3); test: calcineurin pathway inhibitors in yeast reporter, dose response, S. cerevisiae, CDRE-lacZ, luminescence, secondary (AID 2388); type: functional, cell-based;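 further: yeast reporter cells carrying a calcineurin-responsive lacZ construct stimulated with calcium chloride; luminescent beta-galactosidase reporter signal in whole cells rather than isolated phosphatase activity; potency for inhibition where a drop in reporter signal means calcineurin blockade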
T3 sequence (B9W6M3 whole entry): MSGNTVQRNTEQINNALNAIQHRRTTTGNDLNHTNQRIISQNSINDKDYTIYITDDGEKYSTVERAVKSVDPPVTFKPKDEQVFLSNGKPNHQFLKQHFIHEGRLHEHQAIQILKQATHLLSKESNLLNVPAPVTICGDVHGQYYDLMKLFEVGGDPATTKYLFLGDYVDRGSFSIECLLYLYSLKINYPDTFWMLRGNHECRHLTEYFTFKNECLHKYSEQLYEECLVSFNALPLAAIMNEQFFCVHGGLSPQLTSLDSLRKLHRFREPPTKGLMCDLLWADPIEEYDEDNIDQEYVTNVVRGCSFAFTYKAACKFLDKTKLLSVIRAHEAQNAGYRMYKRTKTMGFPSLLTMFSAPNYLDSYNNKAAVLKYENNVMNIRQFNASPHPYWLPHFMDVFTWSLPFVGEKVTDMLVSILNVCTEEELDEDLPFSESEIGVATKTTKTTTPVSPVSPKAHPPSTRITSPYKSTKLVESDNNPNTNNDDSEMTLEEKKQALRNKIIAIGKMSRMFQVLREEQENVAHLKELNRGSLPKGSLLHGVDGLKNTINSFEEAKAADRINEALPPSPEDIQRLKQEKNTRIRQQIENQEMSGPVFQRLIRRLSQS

[9] = NIH-3T3 fibroblast cytotoxicity, dose response, cytotoxicity control, cell-based, fluorescence, Alamar Blue, secondary assay (AID 2327); type: functional;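 further: NIH-3T3 mouse fibroblasts cultured with fluconazole at 8 µg/mL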
[10] = tested on: Streptococcus; test: Group A Streptococcus viability loss, dose response, counter-screen for streptokinase expression inhibitor project, luminescence, BacTiterGlo (AID 1915); type: functional, organism-based;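 further: potency for reduction of bacterial viability or growth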
[11] = C. albicans growth with fluconazole, confirmation, fluorescence, retest (AID 2467); type: functional, cell-based
[12] = molecular target: T4, Streptokinase A (Streptococcus pyogenes serotype M1, UniProt P10520); test: S. pyogenes streptokinase expression inhibitors, potency, dose response, plasminogen activation absorbance, OD405 (AID 1914); type: functional, Streptococcus pyogenes M1 GAS;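 further: secreted streptokinase activity via plasminogen activation per viability signal from cell pellet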
T4 sequence (P10520 whole entry): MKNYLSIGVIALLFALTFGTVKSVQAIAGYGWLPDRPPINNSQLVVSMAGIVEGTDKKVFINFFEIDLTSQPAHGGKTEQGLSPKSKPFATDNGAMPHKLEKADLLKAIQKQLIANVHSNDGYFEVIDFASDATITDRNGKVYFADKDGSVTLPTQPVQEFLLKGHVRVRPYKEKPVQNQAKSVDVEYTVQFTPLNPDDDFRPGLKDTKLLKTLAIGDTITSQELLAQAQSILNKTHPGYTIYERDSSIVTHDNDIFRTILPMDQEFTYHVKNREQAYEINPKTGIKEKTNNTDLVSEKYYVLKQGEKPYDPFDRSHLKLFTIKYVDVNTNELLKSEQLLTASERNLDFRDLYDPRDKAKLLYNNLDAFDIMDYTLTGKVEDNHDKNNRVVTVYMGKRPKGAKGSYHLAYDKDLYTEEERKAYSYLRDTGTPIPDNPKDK

[13] = tested on: Streptococcus sp. 'group A'; test: growth inhibition of control SK(-) GAS strain, dose response, counter-screen for streptokinase expression inhibitor project, luminescence, kanamycin, BacTiterGlo, confirmation (AID 1900); type: functional, organism-based
[14] = Luminescence Cell-Based Dose Retest to Confirm Inhibitors of Cancer Stem Cells. [Related pubchem assays (depositor defined):AID2717, AID2721]; type: functional; conditions: Homo sapiens
[15] = microbe, parasite or virus in culture; type: functional; conditions: Mycobacterium tuberculosis
[16] = molecular target: Long-chain-fatty-acid--AMP ligase FadD28 (Mycobacterium tuberculosis, UniProt P9WQ59); test: Fluorescence polarization aasay to screen for inhibitors that compete for the binding of FadD28 to a bisubstrate Measured in Biochemical System Using Plate Reader - 2147-01_Inhibitor_Dose_CherryPick_Activity.; type: functional, Mycobacterium tuberculosis H37Rv
[17] = molecular target: Photoreceptor-specific nuclear receptor (Homo sapiens, UniProt Q9Y5X4); type: functional, cell-based;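 further: CHO-S cells with Gal4-NCOR and VP16-NR2E3 two-hybrid luciferase reporter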
[18] = molecular target: Arf-GAP with SH3 domain, ANK repeat and PH domain-containing protein 1 (Homo sapiens, UniProt Q9ULH1); type: functional;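 further: biochemical fluorescence polarization dose–response screen measuring inhibition of ASAP1; ASAP1 GAP domain stimulating GTP hydrolysis by truncated human ARF1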
Sequence of Arf-GAP with SH3 domain, ANK repeat and PH domain-containing protein 1 (Q9ULH1 whole entry, the tested form may be a part): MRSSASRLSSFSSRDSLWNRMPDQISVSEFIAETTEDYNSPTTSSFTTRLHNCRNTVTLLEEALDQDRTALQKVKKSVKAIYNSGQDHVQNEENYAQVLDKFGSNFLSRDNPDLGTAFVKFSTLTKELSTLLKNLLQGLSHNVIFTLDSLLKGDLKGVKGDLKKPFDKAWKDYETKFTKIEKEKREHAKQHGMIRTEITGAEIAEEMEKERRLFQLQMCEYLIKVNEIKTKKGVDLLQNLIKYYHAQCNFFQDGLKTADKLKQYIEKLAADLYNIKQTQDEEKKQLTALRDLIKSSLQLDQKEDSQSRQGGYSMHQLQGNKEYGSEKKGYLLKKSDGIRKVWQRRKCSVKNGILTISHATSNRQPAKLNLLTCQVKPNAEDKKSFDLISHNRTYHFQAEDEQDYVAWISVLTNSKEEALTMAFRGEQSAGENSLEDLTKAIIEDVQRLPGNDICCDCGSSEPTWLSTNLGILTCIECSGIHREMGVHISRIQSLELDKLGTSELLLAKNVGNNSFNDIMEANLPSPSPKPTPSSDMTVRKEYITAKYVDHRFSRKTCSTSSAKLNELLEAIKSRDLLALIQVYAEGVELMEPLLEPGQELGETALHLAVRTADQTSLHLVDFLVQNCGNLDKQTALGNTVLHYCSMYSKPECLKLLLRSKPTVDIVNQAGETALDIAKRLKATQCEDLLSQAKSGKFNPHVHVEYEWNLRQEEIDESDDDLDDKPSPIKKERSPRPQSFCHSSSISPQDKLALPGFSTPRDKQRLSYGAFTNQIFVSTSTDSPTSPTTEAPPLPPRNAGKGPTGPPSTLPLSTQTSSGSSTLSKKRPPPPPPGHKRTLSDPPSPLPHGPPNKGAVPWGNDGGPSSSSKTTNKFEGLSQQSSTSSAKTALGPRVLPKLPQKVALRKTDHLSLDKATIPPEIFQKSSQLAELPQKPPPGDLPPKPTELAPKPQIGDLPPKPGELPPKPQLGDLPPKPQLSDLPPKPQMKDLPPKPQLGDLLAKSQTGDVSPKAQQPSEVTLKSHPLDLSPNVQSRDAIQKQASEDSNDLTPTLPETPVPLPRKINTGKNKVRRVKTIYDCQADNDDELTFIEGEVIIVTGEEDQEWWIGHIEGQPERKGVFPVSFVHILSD

Sequence of Melanocortin receptor 4 (P32245 whole entry): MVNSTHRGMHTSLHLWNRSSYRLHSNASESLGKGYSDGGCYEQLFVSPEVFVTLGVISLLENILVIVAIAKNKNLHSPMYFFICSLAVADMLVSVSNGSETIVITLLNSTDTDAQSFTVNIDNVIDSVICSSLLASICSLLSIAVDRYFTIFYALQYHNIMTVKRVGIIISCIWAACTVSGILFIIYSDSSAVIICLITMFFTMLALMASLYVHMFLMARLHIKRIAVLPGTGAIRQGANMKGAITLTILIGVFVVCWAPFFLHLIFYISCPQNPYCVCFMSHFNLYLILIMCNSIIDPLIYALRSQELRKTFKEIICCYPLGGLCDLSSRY
Sequence of Protein Wnt-3a (P27467 whole entry): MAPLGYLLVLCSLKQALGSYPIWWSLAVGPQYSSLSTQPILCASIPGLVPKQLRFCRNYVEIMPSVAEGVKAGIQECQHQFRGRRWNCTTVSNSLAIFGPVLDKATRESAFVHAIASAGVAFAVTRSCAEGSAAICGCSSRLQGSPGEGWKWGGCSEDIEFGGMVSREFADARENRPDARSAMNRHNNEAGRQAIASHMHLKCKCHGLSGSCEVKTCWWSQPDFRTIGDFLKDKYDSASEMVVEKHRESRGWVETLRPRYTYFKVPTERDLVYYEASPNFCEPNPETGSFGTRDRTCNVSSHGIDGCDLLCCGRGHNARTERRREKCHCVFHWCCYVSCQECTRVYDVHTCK
Sequence of Photoreceptor-specific nuclear receptor (Q9Y5X4 whole entry, the tested form may be a part): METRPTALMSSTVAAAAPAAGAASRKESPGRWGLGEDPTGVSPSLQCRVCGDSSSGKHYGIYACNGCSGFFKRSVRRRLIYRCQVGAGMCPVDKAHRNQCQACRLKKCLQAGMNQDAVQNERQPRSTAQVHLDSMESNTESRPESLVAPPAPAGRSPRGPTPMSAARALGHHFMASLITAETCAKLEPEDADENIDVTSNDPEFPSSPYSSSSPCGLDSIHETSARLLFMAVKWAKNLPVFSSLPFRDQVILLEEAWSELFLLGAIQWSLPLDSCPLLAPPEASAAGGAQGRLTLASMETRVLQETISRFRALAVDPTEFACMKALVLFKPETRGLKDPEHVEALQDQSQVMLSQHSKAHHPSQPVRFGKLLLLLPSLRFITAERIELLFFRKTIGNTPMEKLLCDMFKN
Sequence of Long-chain-fatty-acid--AMP ligase FadD28 (P9WQ59 whole entry, the tested form may be a part): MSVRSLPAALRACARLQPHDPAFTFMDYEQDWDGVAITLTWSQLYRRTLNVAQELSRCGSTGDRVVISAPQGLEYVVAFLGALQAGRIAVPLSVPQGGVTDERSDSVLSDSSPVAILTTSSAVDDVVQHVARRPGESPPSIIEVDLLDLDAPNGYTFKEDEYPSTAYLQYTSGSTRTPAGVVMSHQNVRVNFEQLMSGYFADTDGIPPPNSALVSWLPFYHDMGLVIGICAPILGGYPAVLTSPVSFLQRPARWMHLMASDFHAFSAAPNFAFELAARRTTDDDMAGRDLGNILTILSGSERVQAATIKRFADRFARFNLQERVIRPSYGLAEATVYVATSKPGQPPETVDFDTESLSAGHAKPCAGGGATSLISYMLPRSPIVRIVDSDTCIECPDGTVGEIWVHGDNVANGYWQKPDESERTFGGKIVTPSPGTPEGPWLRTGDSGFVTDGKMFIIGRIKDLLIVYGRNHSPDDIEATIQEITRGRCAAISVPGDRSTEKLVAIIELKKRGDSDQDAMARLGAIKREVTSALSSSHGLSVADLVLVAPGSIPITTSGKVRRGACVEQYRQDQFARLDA
Sequence of ATP-dependent molecular chaperone HSP82 (C4YTQ8 whole entry): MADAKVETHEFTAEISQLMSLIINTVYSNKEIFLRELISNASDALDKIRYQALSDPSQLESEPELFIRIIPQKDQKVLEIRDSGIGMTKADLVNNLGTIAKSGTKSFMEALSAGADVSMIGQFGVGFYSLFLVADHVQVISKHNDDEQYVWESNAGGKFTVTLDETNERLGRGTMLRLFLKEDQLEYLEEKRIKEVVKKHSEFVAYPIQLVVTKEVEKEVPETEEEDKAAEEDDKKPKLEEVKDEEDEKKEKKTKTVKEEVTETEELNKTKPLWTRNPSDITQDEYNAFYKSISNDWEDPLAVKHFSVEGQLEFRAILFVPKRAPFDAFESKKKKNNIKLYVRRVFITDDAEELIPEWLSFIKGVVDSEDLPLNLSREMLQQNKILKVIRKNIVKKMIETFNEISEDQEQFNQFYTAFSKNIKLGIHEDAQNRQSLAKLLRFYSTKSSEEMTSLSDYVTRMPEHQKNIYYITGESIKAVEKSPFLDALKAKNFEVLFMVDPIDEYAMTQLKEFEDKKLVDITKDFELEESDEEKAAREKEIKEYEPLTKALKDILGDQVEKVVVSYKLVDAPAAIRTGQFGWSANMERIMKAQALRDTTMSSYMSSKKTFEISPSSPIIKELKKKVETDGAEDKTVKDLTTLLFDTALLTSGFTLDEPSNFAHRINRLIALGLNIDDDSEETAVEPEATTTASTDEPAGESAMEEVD

Clc1ccc(/C=N/NC2=Nc3cccc4cccc2c34)cc1
EC50 [1]: > 89.1 µM (inactive)
CC50 [2]: 21.4 µM (active)

O=C1NC(=O)/C(=C/c2c(O)ccc3ccccc23)N1
IC50 [3]: 6.2 µM (active)
IC50 [4]: 4.34 µM (active)

CC(=O)Nc1cccc(OCC(=O)/C=C2\N(C)c3ccccc3C2(C)C)c1
IC50 [5]: 50 µM (inactive)
IC50 [6]: > 100 µM (inactive)

O=C(Nc1nc2ccc(SC(F)F)cc2s1)c1ccc(NS(=O)(=O)c2ccc(F)c(F)c2)cc1
EC50 [7]: > 150 µM (inactive)
EC50 [8]: > 180 µM (inactive)
EC50 [9]: 92.6 µM (active)
EC50 [1]: > 89.2 µM (inactive)
EC50 [10]: 2.79 µM (active)
EC50 [11]: 2.18 µM (active)
EC50 [12]: > 50 µM (not active)
EC50 [13]: 2.68 µM (active)
AC50 [14]: 2.45 µM (active)
CC50 [15]: 20.1 µM (active)

Nc1nnc(SCCCOc2ccc(F)cc2)s1
AC50 [16]: 46.6 µM (active)

COC(CNC(=O)CSCc1nc(-c2ccc(SC)cc2)oc1C)OC
IC50 [17]: 2.23 µM (active)

COc1cc2sc3ccc(C#Cc4ccccn4)cc3c(=O)c2cc1OC
IC50 [18]: 22.9 µM (inactive)
